Laboratory results: ChEMBL document CHEMBL4316582, “Nitro-Group-Containing Drugs” (J Med Chem, 2019)

How the values were obtained:
HT-29 [1] = assay: Cytotoxicity against human HT-29 cells assessed as reduction in cell viability after 2 hrs in presence of AZD7765 by Alamar blue assay; type: functional, cell-based; details: HT-29, 2 h
HT-29 [2] = assay: Cytotoxicity against human HT-29 cells assessed as reduction in cell viability after 2 hrs in presence of LY2603618 by Alamar blue assay; type: functional, cell-based; details: HT-29, 2 h
NCI-H460 [3] = assay: Cytotoxicity against human NCI-H460 cells assessed as reduction in cell viability after 2 hrs in presence of LY2603618 by Alamar blue assay; type: functional, cell-based; details: NCI-H460, 2 h
DU-145 = assay: Cytotoxicity against human DU145 cells assessed as reduction in cell viability after 2 hrs in presence of AZD7765 by Alamar blue assay; type: functional, cell-based; details: DU-145, 2 h
NCI-H460 [4] = assay: Cytotoxicity against human NCI-H460 cells assessed as reduction in cell viability after 2 hrs in presence of AZD7765 by Alamar blue assay; type: functional, cell-based; details: NCI-H460, 2 h
HeLa [5] = assay: Cytotoxicity against human HeLa cells assessed as reduction in cell viability after 2 hrs in presence of LY2603618 by Alamar blue assay; type: functional, cell-based
HeLa [6] = assay: Cytotoxicity against human HeLa cells assessed as reduction in cell viability after 2 hrs in presence of AZD7765 by Alamar blue assay; type: functional, cell-based
HT-29 [7] = assay: Cytotoxicity against human HT-29 cells assessed as reduction in cell viability after 2 hrs in presence of PF477736 by Alamar blue assay; type: functional, cell-based; details: HT-29, 2 h
NCI-H460 [8] = assay: Cytotoxicity against human NCI-H460 cells assessed as reduction in cell viability after 2 hrs in presence of PF477736 by Alamar blue assay; type: functional, cell-based; details: NCI-H460, 2 h
[9] = Tmax in mouse at 10 mg/kg; type: ADME, organism-based; details: in vivo
NCI-H460 [10] = assay: Cytotoxicity against human NCI-H460 cells assessed as reduction in cell viability after 2 hrs under hypoxic conditions by Alamar blue assay; type: functional, cell-based; details: NCI-H460, 2 h
[11] = Clearance in mouse at 10 mg/kg; type: ADME, organism-based; details: in vivo
NCI-H460 [12] = assay: Cytotoxicity against human NCI-H460 cells assessed as reduction in cell viability after 2 hrs under normoxic conditions by Alamar blue assay; type: functional, cell-based; details: NCI-H460, 2 h
[13] = Half life in mouse at 10 mg/kg; type: ADME, organism-based; details: in vivo
[14] = Cmax in mouse at 10 mg/kg; type: ADME, organism-based; parameters: dose 10 mg/kg; details: in vivo

Row | Tmax [9] | clearance [11] | half-life [13] | Cmax [14] | SMILES | IC50 (HT-29 [1]) | IC50 (HT-29 [2]) | IC50 (NCI-H460 [3]) | IC50 (DU-145) | IC50 (NCI-H460 [4]) | IC50 (HeLa [5]) | IC50 (HeLa [6]) | IC50 (HT-29 [7]) | IC50 (NCI-H460 [8]) | IC50 (NCI-H460 [10]) | IC50 (NCI-H460 [12])
1 | – | – | – | – | Cn1c(COP(=O)(NCCCl)NCCCl)cnc1[N+](=O)[O-] | 39 mM | 46 mM | 22 mM | 80 mM | 25 mM | 90 mM | 95 mM | 57 mM | 19 mM | – | –
2 | 5 min | 188 mL/min/kg | 28.8 min | 1820 ng/mL | COc1cccc2c1C(=O)c1c(O)c3c(c(O)c1C2=O)C[C@@](O)(C(C)=O)C[C@@H]3O[C@H]1C[C@H](NCOCCn2ccnc2[N+](=O)[O-])[C@H](O)[C@H](C)O1 | – | – | – | – | – | – | – | – | – | 23 nM | 0.0098 mM
